# Data: patent publication US20030032674A1, “Use of unsaturated fatty acids to treat severe inflammatory diseases” (priority 2001, published 2003)
# What was measured:
# TLR2 = target: T1, TLR2 (Homo sapiens, UniProt O60603); assay: NFκB reporter in TLR2-transfected 293T cells; assay type: cell-based; conditions: PamCAG 100 ng/ml
# T1 construct: expressed in transfected cells; host or cells: 293T (stated not to express TLR2)
# Source text: Plasmids and DNA Constructs—All plasmids and constructs were obtained or made as reported in either S. H. Rhee and D. Hwang, “Murine TOLL-like receptor 4 confers lipopolysaccaride responsiveness as determined by activation of NFκB and expression of the inducible cyclooxygenase,” Journal of Biological Chemistry, vol. 275, pp. 34035-34040 (2000); and J. Y. Lee et al., “Saturated fatty acids, but not unsaturated fatty acids, induce the expression of cyclooxygenase-2 mediated through TOLL-like receptor 4,” Journal of Biological Chemistry, vol. 276, pp. 16683-16689 (2001). Briefly, the luciferase reporter plasmids (pGL2) containing the promoter region of the murine COX-2 gene (−3201/+93 or −1017/+93) were provided by David Dewitt (Michigan State University, East Lansing, Mich.). To prepare the wild-type COX-2 promoter fragment, polymerase chain reaction (PCR) was performed with the primers named Kpn-COX2-For and Hind-COX2-Rev using the murine COX-2 (−1017/+93) luciferase reporter plasmid as a template. To prepare the mutant COX-2 promoter fragment containing mutated NFκB site, Kpn-COX2-Fmut and Hind-COX2-Rev were used as primers. […]
# Acylation by saturated fatty acids of bacterial lipopeptides is also required for the activation of TLR2. […] After 18 hr, luciferase activities were determined. […]
# iNOS expression = assay: iNOS immunoblot in RAW 264.7 cells; assay type: cell-based, murine; conditions: lauric acid 1, 10, 50, 100 μM with BSA, 11 h
# Protocol: Cell culture—RAW 264.7 cells (a murine macrophage-like cell line, ATCC TIB-71), 293T cells (a human embryonic kidney cell line, provided by Sam Lee, Beth Israel Hospital. Boston, Mass.), and HT-29 cells (a human colon adenocarcinoma cell line, ATCC HTB-38) were cultured in Dulbecco's modified Eagle's medium (DMEM) containing 10% (v/v) heat-inactivated fetal bovine serum (FBS, Intergen) and 100 units/ml Penicillin and […] Streptomycin (GIBCO-BRL) at 37° C. in a 5% CO2/air environment. Cells (2×10^6) were plated in 60-mm dishes and cultured for an additional 18 hours to allow the number of cells to approximately double. Cells were maintained in serum-poor (0.25% FBS) medium for another 18 hours prior to the treatment with indicated reagents.
# Preparation of fatty acids-albumin complexes—All fatty acids were solubilized in ethanol, and then combined with fatty acid-free and low-endotoxin BSA at a molar ratio of 10:1 (fatty acid: albumin) in serum-poor medium (0.25% FBS). […]
# After 11 h, cell lysates were analyzed by COX-2, iNOS, IL-1α, or GAPDH immunoblot using a Western blot analysis.
# RAW 264.7 cells were pretested with various concentrations (5, 10, 20, and 50 μM) of docosahexaenoic acid (C22:6n-3) for 3 hours, and then stimulated with LPS (100 ng/ml) for 8 hours and analyzed by COX-2, iNOS, IL-1 a or GAPDH immunoblot.
# T1 sequence (O60603 21-784, species assumed): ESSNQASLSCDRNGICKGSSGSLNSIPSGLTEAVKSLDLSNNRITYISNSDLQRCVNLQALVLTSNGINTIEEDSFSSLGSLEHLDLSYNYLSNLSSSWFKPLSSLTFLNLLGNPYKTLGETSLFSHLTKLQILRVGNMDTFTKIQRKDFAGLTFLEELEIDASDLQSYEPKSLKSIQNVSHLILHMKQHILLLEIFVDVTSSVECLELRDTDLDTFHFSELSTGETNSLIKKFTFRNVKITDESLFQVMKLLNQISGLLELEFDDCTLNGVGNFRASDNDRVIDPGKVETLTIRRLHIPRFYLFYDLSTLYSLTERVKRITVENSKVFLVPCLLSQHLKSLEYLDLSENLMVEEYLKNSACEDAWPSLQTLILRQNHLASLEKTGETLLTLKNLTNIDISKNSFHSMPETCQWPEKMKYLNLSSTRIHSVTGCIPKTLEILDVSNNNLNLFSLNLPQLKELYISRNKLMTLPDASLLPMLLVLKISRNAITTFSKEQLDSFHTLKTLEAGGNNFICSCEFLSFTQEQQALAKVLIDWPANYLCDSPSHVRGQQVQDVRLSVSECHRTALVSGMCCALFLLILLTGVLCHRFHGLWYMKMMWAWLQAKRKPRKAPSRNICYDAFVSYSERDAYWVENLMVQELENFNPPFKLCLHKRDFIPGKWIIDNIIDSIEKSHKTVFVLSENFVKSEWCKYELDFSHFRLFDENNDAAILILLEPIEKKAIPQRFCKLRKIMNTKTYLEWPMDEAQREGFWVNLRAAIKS
smiles,measurement,setting,value
CCCCCCCCCCCC(=O)O [lauric acid],effect on NFκB activation induced by PamCAG,TLR2,potentiated
same,iNOS expression induced by fatty acid (immunoblot),iNOS expression,induced
